Reference: patent US20210309595A1, “COMPOSITION FOR FORMING OPTICAL COMPONENT, OPTICAL COMPONENT, COMPOUND, AND RESIN” (Mitsubishi Gas Chemical Company, Inc., priority 2018, published 2021)

Key:
Format in all cases: physicochemical
[1] = Solubility test in organic solvent (amount of dissolution); conditions: amount of dissolution in propylene glycol monomethyl ether, 23° C., ultrasonic waves 30 minutes, visual observation
Method: With respect to the solubility of each compound in an organic solvent, the solubility of the compound in propylene glycol monomethyl ether was measured. The solubility was evaluated according to the following criteria, using the amount of dissolution in propylene glycol monomethyl ether. For the measurement of the amount of dissolution, the evaluation was carried out by precisely weighing the compound in a test tube at 23° C., […], applying ultrasonic waves for 30 minutes with an ultrasonic cleaning machine, visually observing the subsequent state of the liquid, and determining the concentration of the completely dissolved amount as the basis.

[2] = Transparency (absorption coefficient) of optical component forming film; conditions: absorption coefficient at wavelength 633 nm; 1000 nm film, baked 110° C. 60 seconds
Method: (§1) The compositions for forming optical components were each prepared so that the amount of the compound shown in the following table was 5% by mass in propylene glycol methyl ether. Next, a silicon substrate was spin coated with each of these compositions for forming an optical component, and then baked at 110° C. for 60 seconds to prepare an optical component forming film each having a film thickness of 1000 nm.
(§2) Then, tests for the refractive index and the transparency at a wavelength of 633 nm were carried out by using a vacuum ultraviolet with variable angle spectroscopic ellipsometer (model name: VUV-VASE) manufactured by J.A. Woollam Japan, and the refractive index and the transparency were evaluated.

[3] = Refractive index of optical component forming film (spectroscopic ellipsometer); conditions: wavelength 633 nm; 1000 nm film from 5% by mass composition, baked 110° C. 60 seconds
Method: as §1, §2

[4] = Film heat resistance (visual defects after baking); design: key: A: No visual defects in the film; C: Visual defects in the film (including the loss of films); conditions: film baked at 110° C. for 5 minutes
Method: as §1
The optical component forming film was baked at 110° C. for 5 minutes to evaluate the film heat resistance.

SMILES | Solubility test [1] | Evaluation of transparency [2] | Evaluation of refractive index [3] | Evaluation of film heat resistance [4]
CC1(c2ccc3ccccc3c2)c2c(ccc3ccc(O)cc23)Oc2ccc3ccc(O)cc3c21 [BiN-4] | A (5.0% by mass≤amount of dissolution) | A (The absorption coefficient is less than 0.03.) | A (The refractive index is 1.75 or more.) | A
C=C(C)C(=O)OCC(O)COc1ccc2ccc3c(c2c1)C(c1ccc2ccccc2c1)c1c(ccc2ccc(OCC(O)COC(=O)C(=C)C)cc12)O3 (centres unmarked) [BiN-1-Ea] | A (5.0% by mass≤amount of dissolution) | A (The absorption coefficient is less than 0.03.) | B (The refractive index is 1.65 or more and less than 1.75.) | A
Oc1ccc2c3c(ccc2c1)Oc1ccc2cc(O)ccc2c1C3c1ccc2ccccc2c1 [BiN-3] | A (5.0% by mass≤amount of dissolution) | A (The absorption coefficient is less than 0.03.) | A (The refractive index is 1.75 or more.) | A
C=Cc1ccc(COCCOc2ccc3ccc4c(c3c2)C(c2ccc3ccccc3c2)c2c(ccc3ccc(OCCOCc5ccc(C=C)cc5)cc23)O4)cc1 [BiN-1-SE] | A (5.0% by mass≤amount of dissolution) | A (The absorption coefficient is less than 0.03.) | A (The refractive index is 1.75 or more.) | A
Oc1ccc2ccc3c(c2c1)C(c1ccc2ccccc2c1)c1c(ccc2ccc(O)cc12)O3 [BiN-1] | A (5.0% by mass≤amount of dissolution) | A (The absorption coefficient is less than 0.03.) | A (The refractive index is 1.75 or more.) | A
C=Cc1ccc(COc2ccc3ccc4c(c3c2)C(c2ccc3ccccc3c2)c2c(ccc3ccc(OCc5ccc(C=C)cc5)cc23)O4)cc1 [BiN-1-SX] | A (5.0% by mass≤amount of dissolution) | A (The absorption coefficient is less than 0.03.) | A (The refractive index is 1.75 or more.) | A
C=C(C)C(=O)OCCC(N)C(=O)Oc1ccc2ccc3c(c2c1)C(c1ccc2ccccc2c1)c1c(ccc2ccc(OC(=O)C(N)CCOC(=O)C(=C)C)cc12)O3 (centres unmarked) [BiN-1-Ua] | A (5.0% by mass≤amount of dissolution) | A (The absorption coefficient is less than 0.03.) | B (The refractive index is 1.65 or more and less than 1.75.) | A
Oc1ccc(Oc2ccc3ccc4c(c3c2)C(c2ccc3ccccc3c2)c2c(ccc3ccc(Oc5ccc(O)cc5)cc23)O4)cc1 [BiN-1-PX] | A (5.0% by mass≤amount of dissolution) | A (The absorption coefficient is less than 0.03.) | A (The refractive index is 1.75 or more.) | A
c1ccc2cc(C3c4c(ccc5ccc(OCC6CO6)cc45)Oc4ccc5ccc(OCC6CO6)cc5c43)ccc2c1 (centres unmarked) [BiN-1-G] | A (5.0% by mass≤amount of dissolution) | A (The absorption coefficient is less than 0.03.) | A (The refractive index is 1.75 or more.) | A
C=CCOc1ccc2c3c(ccc2c1)Oc1ccc2cc(OCC=C)ccc2c1C3c1ccc2ccccc2c1 [BiN-3-AL] | A (5.0% by mass≤amount of dissolution) | A (The absorption coefficient is less than 0.03.) | A (The refractive index is 1.75 or more.) | A
Oc1ccc(CCOc2ccc3ccc4c(c3c2)C(c2ccc3ccccc3c2)c2c(ccc3ccc(OCCc5ccc(O)cc5)cc23)O4)cc1 [BiN-1-PE] | A (5.0% by mass≤amount of dissolution) | A (The absorption coefficient is less than 0.03.) | A (The refractive index is 1.75 or more.) | A
C#CCOc1ccc2ccc3c(c2c1)C(c1ccc2ccccc2c1)c1c(ccc2ccc(OCC#C)cc12)O3 [BiN-1-Pr] | A (5.0% by mass≤amount of dissolution) | A (The absorption coefficient is less than 0.03.) | A (The refractive index is 1.75 or more.) | A
Oc1ccc2c(C(c3ccc4ccccc4c3)c3c(O)ccc4cc(O)ccc34)c(O)ccc2c1 [BiN-3U] | A (5.0% by mass≤amount of dissolution) | A (The absorption coefficient is less than 0.03.) | A (The refractive index is 1.75 or more.) | A
C=CC(=O)Oc1ccc2ccc3c(c2c1)C(c1ccc2ccccc2c1)c1c(ccc2ccc(OC(=O)C=C)cc12)O3 [BiN-1-Ac] | A (5.0% by mass≤amount of dissolution) | A (The absorption coefficient is less than 0.03.) | B (The refractive index is 1.65 or more and less than 1.75.) | A
Oc1cc2ccccc2c(C(c2ccc3ccccc3c2)c2c(O)c(O)cc3ccccc23)c1O [BiN-5U] | A (5.0% by mass≤amount of dissolution) | A (The absorption coefficient is less than 0.03.) | A (The refractive index is 1.75 or more.) | A
OCCOc1ccc2ccc3c(c2c1)C(c1ccc2ccccc2c1)c1c(ccc2ccc(OCCO)cc12)O3 [BiN-1-E] | A (5.0% by mass≤amount of dissolution) | A (The absorption coefficient is less than 0.03.) | B (The refractive index is 1.65 or more and less than 1.75.) | A
Oc1ccc2ccc3c(c2c1)C(c1cccc2ccccc12)c1c(ccc2ccc(O)cc12)O3 [BiN-2] | A (5.0% by mass≤amount of dissolution) | A (The absorption coefficient is less than 0.03.) | A (The refractive index is 1.75 or more.) | A
CC(C)(C)OC(=O)COc1ccc2c3c(ccc2c1)Oc1ccc2cc(OCC(=O)OC(C)(C)C)ccc2c1C3c1ccc2ccccc2c1 [BiN-3-MeBOC] | A (5.0% by mass≤amount of dissolution) | A (The absorption coefficient is less than 0.03.) | B (The refractive index is 1.65 or more and less than 1.75.) | A
Oc1ccc2ccc(O)c(C(c3ccc4ccccc4c3)c3c(O)ccc4ccc(O)cc34)c2c1 [BiN-1U] | A (5.0% by mass≤amount of dissolution) | A (The absorption coefficient is less than 0.03.) | A (The refractive index is 1.75 or more.) | A
c1ccc2cc(C3c4c(ccc5ccc(OCCOCC6CO6)cc45)Oc4ccc5ccc(OCCOCC6CO6)cc5c43)ccc2c1 (centres unmarked) [BiN-1-GE] | A (5.0% by mass≤amount of dissolution) | A (The absorption coefficient is less than 0.03.) | A (The refractive index is 1.75 or more.) | A
